{"source": "patent US20090181010A1", "about": "“Arginase II: a target for the prevention of atherosclerosis” (The Johns Hopkins University, priority 2006, published 2009)", "key": {"NO production [1]": {"system": "NO production", "experiment": "NO production in rat aortic rings", "details": "rat aortic rings E+, pre-incubation with BEC", "experimental": "FIGS. 7A-B depict arginase dependent endothelial dysfunction in OxLDL treated rat aorta. Arginase inhibition restores endothelial function and increases NO production in rat aortic rings. […] The increase in arginase activity was blocked by preincubation with BEC ([…], *p=0.0007, **p<0.0001 vs. untreated control; #p=0.0003 vs. OxLDL; n=5).\n(§1) NO was estimated as nitrate/nitrite (NOx) by Griess reaction after conversion of nitrate to nitrite by nitrate reductase, using the Nitric Oxide Assay Kit (Calbiochem). The concentration of NOx from cell lysates was expressed as nmol/mg proteins."}, "NO production [2]": {"system": "NO production", "experiment": "Aortic NO production (griess method) in Apo E knockout mice", "assay_type": "in vivo", "details": "Apo E KO mice, BEC treated"}, "Apo E knockout mice": {"system": "Apo E knockout mice", "experiment": "Aortic pulse wave velocity (vascular stiffness) in Apo E knockout mice", "assay_type": "in vivo", "details": "Apo E KO mice, HC diet", "text": "(§2) FIGS. 8A-B Arginase inhibition decreases vascular stiffness and restores endothelial function in Apo E knockout mice. 16 WT mice were randomized to receive a normal or high cholesterol (HC) diet. […] Aortic Pulse wave velocity (PWV) (measured by 20 MHz pulsed Doppler from arch to abdominal aorta (4 cm) was used to measure vascular stiffness before and after pump implanatation."}, "arginase [3]": {"system": "arginase", "experiment": "Aortic arginase activity in Apo E knockout mice", "assay_type": "in vivo", "details": "Apo E KO mice, BEC treated", "experimental": "as §2\n(§3) Cell lysates were prepared with lysis buffer (50 mM Tris-HCl, pH7.5, 0.1 mM EDTA and protease inhibitors) by brief vigorous vortexing for 30 min and incubation and centrifuging for 20 min at 14,000 g at 4° C. The supernatants are used for arginase activity as described previously^18. Arginase activity from aortic vessels was assayed as described above following homogenization in lysis buffer."}, "human arginase II": {"biological_target": "T1, human arginase II (Homo sapiens, UniProt P78540)", "T1 sequence (P78540 23-354)": "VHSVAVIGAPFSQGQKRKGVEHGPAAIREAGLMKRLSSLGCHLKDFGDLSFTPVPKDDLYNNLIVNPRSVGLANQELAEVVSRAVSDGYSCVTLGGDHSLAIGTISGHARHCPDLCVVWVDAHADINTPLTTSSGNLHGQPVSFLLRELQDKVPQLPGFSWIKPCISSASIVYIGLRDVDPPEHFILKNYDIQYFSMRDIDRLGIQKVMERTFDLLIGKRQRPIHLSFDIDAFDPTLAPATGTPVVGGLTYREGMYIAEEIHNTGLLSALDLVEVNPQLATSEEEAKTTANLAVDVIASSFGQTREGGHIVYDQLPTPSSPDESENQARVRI", "details": "cited from earlier work"}, "NO production [4]": {"system": "NO production", "experiment": "NO measurement (NOx, Griess reaction) in HAECs", "assay_type": "cell-based, human", "experimental": "(§4) Human aortic endothelial cells (HAECs) were purchased from Cascade Biologics (Portland, Oreg.) and maintained in Medium M200 containing low serum growth supplement according to the supplier's protocol. Confluent HAECs were incubated with starvation medium (M200 plus only 0.5% fetal bovine serum) for 24 hr prior to the experimental protocols.\nas §1"}, "arginase [5]": {"system": "arginase", "experiment": "Arginase activity in rat aortic rings", "details": "rat aortic rings E+, preincubation with BEC", "experimental": "as §3"}, "arginase II [6]": {"system": "arginase II", "experiment": "Quantitative PCR of arginase II expression in HAECs", "assay_type": "cell-based, human", "details": "HAEC", "experimental": "Total RNA from Ox-LDL-stimulated HAEC was prepared using Trizol Reagent according to the supplier's protocol (Gibco). To exclude contamination with genomic DNA, total RNA was treated with RNase-free DNase (Roche). PCR reaction was performed in iCycler optical system (Bio-rad) using SYBR green PCR master mix. The reverse transcriptional PCR primers are as follows: Arginase I: Forward 5′-GGC AAG GTG GCA GAA GTC A-3′, Reverse 5′-TGGTTGTCAGTGGAGTGTTG-3′, size of PCR products=163 bp; Arginase II: Forward 5′-CTATCAGCACTGGATCTTGTTG-3′, Reverse 5′-GGGAGTAGGAAGTTGGTCATAG-3′, size of PCR products=156 bp. 18S rRNA gene (Forward 5′-CGGCGACGACCCATTCGAAC-3′, Reverse 5′-GAATCGAACCCTGATTCCCCGTC-3′, size of PCR product=99 bp) was amplified as a control."}, "arginase II [7]": {"system": "arginase II", "experiment": "Western blot of arginase II protein in HAECs", "assay_type": "cell-based, human", "details": "HAEC, cycloheximide 10 μM co-incubation", "experimental": "Transient transfection of arginase-SiRNA (Santa Cruz Biotechnology) was performed with Oligofectamine reagent according to instructions provided by the supplier (Invitrogen). In brief, 8 μL of Oligofectamine was added to 17 μL Opti-MEM I reduced serum medium (Gibco), incubated for 5 minutes at room temperature, mixed with 180 μL Opti-MEM medium containing different amount of SiRNA, and further incubated for 15 minutes. The SiRNA-Oligofectamine complex was then overlaid on cells (each well of a 6 well culture dish). After incubation for 6 h, endothelial growth medium containing 3 times serum was added for making normal growth medium of 1× serum concentration. Transfected cells were then further incubated for 36 hr and starved for 24 hr prior to experiments and then stimulated with OxLDL for additional 6 hours.\nCells were lysed in SDS sample buffer (62.5 mM Tris, pH6.8, 2% SDS, and 10% Glycerol) and then sonicated for 5 s to reduce sample viscosity. Each sample was resolved by 10% SDS-PAGE, transferred to PVDF membrane (Bio-rad), analysed with antibodies according to the supplier's protocol, and visualized with peroxidase and an enhanced-chemiluminescence system (Pierce). Normalization was performed using the anti-β-tubulin antibody (BD bioscience, 1:1,000). Densitometric analysis of bands was performed with NIH ImageJ program."}, "arginase [8]": {"system": "arginase", "experiment": "Arginase activity assay in HAEC lysates", "assay_type": "cell-based, human", "experimental": "as §4, §3"}, "HAECs": {"system": "HAECs", "experiment": "Immunofluorescence of arginase II and beta-tubulin in HAECs", "assay_type": "cell-based, human", "details": "HAEC, nocodazole 50 μM, 30 minutes", "experimental": "HAECs were cultured on coverslips coated with 25 µg/ml human plasma fibronectin (Invitrogen). Cells were then fixed and permeabilized with 3% paraformaldehyde and 0.5% Triton X-100 in PBS for 2 minutes, followed by 20 minutes of 3% paraformaldehyde alone. Samples were prepared for immunofluorescence analysis by incubating with a rabbit polyclonal antisera against arginase II (Santa Cruz Biotechnology, 1:50) and a mouse monoclonal antibody against β-tubulin (BD Biosciences, 1:50) for 30 minutes at 37° C. They were then rinsed in tris-buffered saline and incubated with Cy5-conjugated anti-rabbit IgG and Cy3-conjugated anti-mouse IgG (Chemicon, Temecula, Calif.). Images were acquired using a Nikon TE-200 epifluorescence microscope (with a 60× objective, and collected using Openlab software (Improvision, Lexington, Mass.) and an internally cooled 12-bit CCD camera (CoolsnapHQ, Photometrics, Tucson, Ariz.)."}}, "note": "Numbered stars: 1 amine (or outer) side, 2 acyl side, 3 side chain; on linkers, the order of the positions; unused ones are H or OH. Bridge positions count the residues as written; N and C are the ends. Square brackets hold non-standard residues; d marks the D form. Peptide text beside a SMILES is read from it. I, II: the chains in the order shown. Actinocin(9to1) = Cc1c2oc3c(C)ccc(C(=O)[*:1])c3nc-2c(C(=O)[*:2])c(N)c1=O; NMeV = CN[C@H](C(=O)O)C(C)C; Sar = CNCC(=O)O", "data": [{"smiles": "N[C@@H](CSCCB(O)O)C(=O)O", "note": "[BEC, S-(2-boronoethyl)-L-cysteine]", "values": [{"measurement": "vascular NO production following OxLDL treatment", "setting": "NO production [1]", "result": "increased vascular NO production"}, {"measurement": "aortic NO production", "setting": "NO production [2]", "result": "restoration of NO production to WT"}, {"measurement": "Aortic pulse wave velocity (PWV)", "setting": "Apo E knockout mice; BEC group, before pump implantation", "result": "4.9±0.22", "unit": "m/sec"}, {"measurement": "Aortic pulse wave velocity (PWV)", "setting": "Apo E knockout mice; after 4 weeks BEC (1 mg/mice) by osmotic infusion pump", "result": "4.0±0.25", "unit": "m/sec"}, {"measurement": "aortic arginase activity", "setting": "arginase [3]", "result": "significant decrease"}, {"measurement": "Ki", "setting": "human arginase II", "result": 210, "unit": "nM"}, {"measurement": "effect on HAEC NOx production", "setting": "NO production [4]; BEC alone, no OxLDL", "result": "no effect"}, {"measurement": "prevention of OxLDL-dependent decrease in NO", "setting": "NO production [4]; HAEC, BEC 10 μmol/L, all time points from 4 hrs", "result": "prevents"}, {"measurement": "NOx production, OxLDL+BEC vs. control", "setting": "NO production [4]; HAEC, OxLDL 50 μg/ml + BEC 10 μmol/L, 4 hrs", "result": 102, "unit": "%"}, {"measurement": "NOx production", "setting": "NO production [4]; HAEC, OxLDL + BEC 10 μmol/L, 4 hrs, control 14.24±0.95", "result": "14.58±0.94", "unit": "nmol/mg proteins"}, {"measurement": "OxLDL-induced increase in arginase activity", "setting": "arginase [5]", "result": "blocked"}]}, {"smiles": "Cc1c2oc3c(C)ccc(C(=O)N[C@@H]4C(=O)N[C@H](C(C)C)C(=O)N5CCC[C@H]5C(=O)N(C)CC(=O)N(C)[C@@H](C(C)C)C(=O)O[C@@H]4C)c3nc-2c(C(=O)N[C@@H]2C(=O)N[C@H](C(C)C)C(=O)N3CCC[C@H]3C(=O)N(C)CC(=O)N(C)[C@@H](C(C)C)C(=O)O[C@@H]2C)c(N)c1=O", "note": "[actinomysin D] (I: T[dV]P[Sar][NMeV] / II: T[dV]P[Sar][NMeV]; ester I:1-I:C, II:1-II:C; linker I:N-II:N via Actinocin(9to1))", "values": [{"measurement": "arginase II expression (quantitative PCR), relative to control 1.0±0.06", "setting": "arginase II [6]; OxLDL 4 hrs + actinomysin D 10 μg/ml", "result": "1.1±0.15"}, {"measurement": "block of OxLDL-induced arginase II expression", "setting": "arginase II [6]; actinomysin D 10 μg/ml", "result": "completely blocked"}]}, {"smiles": "C[C@@H]1C[C@@H]([C@H](O)CC2CC(=O)NC(=O)C2)C(=O)[C@@H](C)C1", "note": "[cycloheximide]", "values": [{"measurement": "block of OxLDL-induced arginase II protein increase", "setting": "arginase II [7]", "result": "completely blocked"}]}, {"smiles": "C/C(=C\\c1csc(C)n1)[C@@H]1C[C@@H]2O[C@]2(C)CCC[C@H](C)[C@H](O)[C@@H](C)C(=O)C(C)(C)[C@@H](O)CC(=O)O1", "note": "[epothilone B]", "values": [{"measurement": "arginase activity", "setting": "arginase [8]; OxLDL + epothilone B 0.1 μmol/L", "result": "73.55±2.82", "unit": "μmol Urea/mg protein/min"}, {"measurement": "endothelial NO production", "setting": "NO production [4]; HAEC, OxLDL + epothilone B 0.1 μmol/L", "result": "8.05±0.47", "unit": "nmol/mg proteins"}, {"measurement": "basal endothelial cell NOx", "setting": "NO production [4]; HAEC, epothilone B alone", "result": "small but not statistically significant increase"}]}, {"smiles": "COC(=O)Nc1nc2ccc(C(=O)c3cccs3)cc2[nH]1", "note": "[nocodazole]", "values": [{"measurement": "arginase II localization (immunofluorescence)", "setting": "HAECs", "result": "diffuse arginase localization"}, {"measurement": "arginase activity", "setting": "arginase [8]; nocodazole 5 μmol/L, control 40.4±7.63", "result": "100.7±11.17", "unit": "μmol Urea/mg protein/min"}, {"measurement": "arginase activity", "setting": "arginase [8]; nocodazole 50 μmol/L, control 40.4±7.63", "result": "134.3±0.28", "unit": "μmol Urea/mg protein/min"}, {"measurement": "arginase activity", "setting": "arginase [8]; nocodazole in combination with Ox-LDL", "result": "141.9±7.07", "unit": "μmol Urea/mg protein/min"}, {"measurement": "NOS measurement", "setting": "NO production [4]; HAEC, nocodazole treatment", "result": "reciprocal decrease"}]}]}
